The record followed here is patent publication US20260184712A1, “Heterocyclic Compounds as ENT Inhibitors and Compounds for Use in the Treatment of Cancers” (iTeos Belgium SA, priority 2022, published 2026).

Each structure is given as a SMILES string.

Broadly, the IC50 is the concentration that gives 50% inhibition.

This assay concerns the target T1, human ENT1 (Homo sapiens, UniProt Q99808).
T1 construct: JAR cells expressing ENT1 were purchased from ATCC; host or cells: JAR cells
T1 sequence (Q99808 1-456): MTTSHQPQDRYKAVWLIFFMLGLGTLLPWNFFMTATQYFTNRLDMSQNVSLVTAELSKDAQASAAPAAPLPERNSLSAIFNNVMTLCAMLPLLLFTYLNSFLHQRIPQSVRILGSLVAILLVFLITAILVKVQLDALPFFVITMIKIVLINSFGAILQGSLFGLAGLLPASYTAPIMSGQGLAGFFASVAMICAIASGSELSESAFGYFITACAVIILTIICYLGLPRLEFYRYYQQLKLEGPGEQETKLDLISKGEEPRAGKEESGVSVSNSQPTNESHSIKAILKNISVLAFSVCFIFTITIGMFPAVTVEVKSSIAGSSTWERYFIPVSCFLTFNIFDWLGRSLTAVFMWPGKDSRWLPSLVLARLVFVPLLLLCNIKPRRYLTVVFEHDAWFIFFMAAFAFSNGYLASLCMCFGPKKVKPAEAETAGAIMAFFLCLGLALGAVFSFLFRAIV
Description: ENT1 binding assay (competition with Sahenta-DY647 on JAR cells). The note with it: competition with SAHENTA-DY647 binding; IC50 categorized; read-out: Binding Assay IC50. The protocol: Compounds of the present disclosure were assayed to show ability to bind to human ENT1. The assay is a competition between a compound of interest and Sahenta-DY647, an ENT1 inhibitor that emits fluorescence (Ex=630 nm, Em=670 nm). By measuring the fluorescence at the end of the assay, one can assess the binding potency of the compounds tested. The compounds of the present disclosure were tested and compared to known ENT inhibitors, dilazep and NBMPR:
JAR cells expressing ENT1 were purchased from ATCC® (HTB-144TM). Cells were cultured in RPMI 1640 medium (LONZA®, #BE12-702F/U1) supplemented with 10% FBS (GIBCO®, #10270-106), 10 mM Hepes (LONZA®, #BE17-737E), 1 mM Sodium Pyruvate (LONZA®, #BE13-115E), and 2% Penicillin/Streptomycin (LONZA®, #DE17-603E) at 37° C. and 5% CO2.
The assay was conducted with the following buffer on the day of the assay: HBSS (LONZA®, #LO-527F) supplemented with 10 mM Hepes (LONZA®, #BE17-737E) and 0.1% BSA (Miltenyi®, #130-091-376).
JAR cells were resuspended in the described buffer. The compounds of interest and Sahenta-DY647 were diluted 200× with the described buffer.
A total of 50,000 cells were pre-incubated for 30 min at 4° C. with the compounds of the present disclosure before adding the corresponding amount of Sahenta-DY647 (100 nM) to the minimal concentration at Bmax and incubating for an additional 30 min at 4° C. The total volume of the reaction was 100 μL (50 μL of cells, 25 μL of the compounds of the present disclosure, and 25 μL of Sahenta-DY647) in a U-bottom 96 well plate (Greiner®, #650-180). The plates were washed 2× by centrifugation (4 min, 400 rcf at 4° C.) in the same buffer. Cells were re-suspended in 70 μL of the buffer and 50 μL was transferred to a Black 384 Optiplate (PerkinElmer®, #6007279). Fluorescence (Ex=630 nm, Em=670 nm) was acquired on a Spectramax i3x (Molecular Devices®).
Dose-response data from the compounds were analyzed with Graphpad Prism 9.1.1@software, using nonlinear regression applied to a sigmoidal dose-response model and the following equation:
Y=Bottom+(Top-Bottom)/(1+10^((LogIC50−X)*HillSlope)), with a shared bottom and top between the test reagent and dipyridamole.
Data from multiple experiments were compiled by taking the average pIC50 value for the reagent in question±the standard deviation (s.d.) and expressing it as an average IC50 value in nM.
The inhibitory effect of the test compound was expressed as a percentage of the inhibition of SAHENTA-DY647 binding.

As for `CN(CCO)C(=O)[C@H]1O[C@@H](n2cnc3c(OCc4ccc([N+](=O)[O-])cc4)ncnc32)[C@H](O)[C@@H]1O` [Compound 292], the IC50 is more than 500 nM.
For the compound `C[C@H]1O[C@@H](n2cnc3c(OCCc4cnc(C#N)nc4)ncnc32)[C@H](O)[C@@H]1O` [Compound 347], the IC50 was more than 500 nM.
As for `C[C@H]1O[C@@H](n2cnc3c(NCc4ccccc4C#N)ncnc32)[C@H](O)[C@@H]1O` [Compound 357], the figure is more than 500 nM; as for `C[C@H]1O[C@@H](n2cnc3c(OCc4ccc([N+](=O)[O-])cc4)nccc32)[C@H](O)[C@@H]1O` [Compound 411], more than 500 nM.
For the compound `C[C@H]1O[C@@H](n2cnc3c(OCc4ccc(Cl)c(C(F)(F)F)c4)ncnc32)[C@H](O)[C@@H]1O` [Compound 250], the IC50 was more than 500 nM.
As for `Cc1cc(Cl)ccc1COc1ncnc2c1ncn2[C@@H]1O[C@H](C)[C@@H](O)[C@H]1O` [Compound 235], the figure is more than 500 nM; as for `C[C@H]1O[C@@H](n2cnc3c(OCc4ccc(F)c(F)c4F)ncnc32)[C@H](O)[C@@H]1O` [Compound 238], more than 500 nM; as for `C[C@H]1O[C@@H](n2c(NC3CCC(O)C3)nc3c(OCc4ccc(F)cc4)ncnc32)[C@H](O)[C@@H]1O` (stereo partly drawn) [Compound 102], 1 to 20 nM.
As for `C[C@H]1O[C@@H](n2c(NC3CCCC3)nc3c(OCc4ccc(Cl)cc4)ncnc32)[C@H](O)[C@@H]1O` [Compound 91], the figure is 1 to 20 nM.
As for `CCNc1nc2c(OCc3ccc(OC(F)F)cc3)ncnc2n1[C@@H]1O[C@H](C)[C@@H](O)[C@H]1O` [Compound 38], the figure is 1 to 20 nM; as for `C[C@H]1O[C@@H](n2c(N[C@H]3C[C@](C)(O)C3)nc3c(OCc4ccc(C#N)cc4)ncnc32)[C@H](O)[C@@H]1O` [Compound 120], less than 1 nM; as for `CC(=O)c1ccc(COc2ncnc3c2ncn3[C@@H]2O[C@H](C)[C@@H](O)[C@H]2O)cc1` [Compound 245], more than 500 nM.
Regarding `Cc1cccc(C)c1CNc1ncnc2c1ncn2[C@@H]1O[C@H](C)[C@@H](O)[C@H]1O` [Compound 331], the IC50 is more than 500 nM.
As for `CC(C)NC(=O)c1ccc(CNc2ncnc3c2ncn3[C@@H]2O[C@H](C)[C@@H](O)[C@H]2O)cc1` [Compound 386], the figure is more than 500 nM.
As for `C[C@H]1O[C@@H](n2c(N[C@H]3CC[C@H](O)CC3)nc3c(N4CCc5ccccc5C4)ncnc32)[C@H](O)[C@@H]1O` [Compound 171], the figure is 20 to 500 nM; as for `C[C@H]1O[C@@H](n2cnc3c(NCc4cccc(-n5cccn5)c4)ncnc32)[C@H](O)[C@@H]1O` [Compound 352], more than 500 nM.
The result for `COc1nc(OCc2ccc([N+](=O)[O-])cc2)c2ncn([C@@H]3O[C@H](C)[C@@H](O)[C@H]3O)c2n1` [Compound 283] reads more than 500 nM; that for `Cc1ccc(COc2ncnc3c2nc(NC2CCCC2)n3[C@@H]2O[C@H](C)[C@@H](O)[C@H]2O)cc1` [Compound 90], 1 to 20 nM; that for `Cc1ccc(COc2ncnc3c2ncn3[C@@H]2O[C@H](C)[C@@H](O)[C@H]2O)cc1` [Compound 211], 20 to 500 nM.
For the compound `C[C@H]1O[C@@H](n2cnc3c(OCCc4cc(F)c(Cl)c(F)c4)ncnc32)[C@H](O)[C@@H]1O` [Compound 268], the IC50 was more than 500 nM.
As for `CC(C)(O)[C@H]1O[C@@H](n2cnc3c(SCc4ccc(OC(F)(F)F)cc4)ncnc32)[C@H](O)[C@@H]1O` [Compound 262], the figure is more than 500 nM; as for `Cc1nn(C)c(C)c1CNc1nc2c(OCc3ccc([N+](=O)[O-])cc3)ncnc2n1[C@H]1O[C@H](C)[C@@H](O)[C@H]1O` [Compound 67], less than 1 nM.
As for `C[C@H]1O[C@@H](n2cnc3c(CCc4ccc([N+](=O)[O-])cc4)ncnc32)[C@H](O)[C@@H]1O` [Compound 210], the figure is 20 to 500 nM.
Take `C[C@H]1O[C@@H](n2c(NCc3ncn(C)n3)nc3c(OCc4ccc(C#N)cc4)ncnc32)[C@H](O)[C@@H]1O` [Compound 69]: the IC50 fell in the range of 20 to 500 nM.
